Test results taken from article PMC9037111, “Structure-based design, synthesis, and biological evaluation of novel piperine–resveratrol hybrids as antiproliferative agents targeting SIRT-2” (RSC Advances, 2021).
Read-outs that look alike come from different tables or passages of the source.

How the values were obtained:
SIRT2 = biological target: T1, SIRT2 (Homo sapiens, UniProt Q8IXJ6); assay: sirtuin deacetylase inhibition assay, IC50; format: biochemical
T1 sequence (Q8IXJ6 2-389): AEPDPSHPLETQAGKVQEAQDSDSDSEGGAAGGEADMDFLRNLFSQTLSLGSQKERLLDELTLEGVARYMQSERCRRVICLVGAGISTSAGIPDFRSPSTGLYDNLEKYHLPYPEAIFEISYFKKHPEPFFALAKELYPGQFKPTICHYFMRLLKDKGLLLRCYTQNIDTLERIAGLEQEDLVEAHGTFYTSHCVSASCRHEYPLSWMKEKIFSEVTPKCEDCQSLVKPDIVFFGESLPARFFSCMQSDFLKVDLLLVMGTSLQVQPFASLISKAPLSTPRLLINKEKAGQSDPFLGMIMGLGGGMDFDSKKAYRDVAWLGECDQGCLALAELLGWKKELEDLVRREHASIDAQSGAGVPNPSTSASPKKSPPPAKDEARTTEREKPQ

COLO 205 = assay: cells; parameters: species or system NCI-60 human tumour cell lines; NCI-60 one-dose screen at 10 uM, percent growth inhibition versus untreated control cells; details: Homo sapiens, COLO 205, growth inhibition, one dose
HT29 = assay: cells; parameters: species or system NCI-60 human tumour cell lines; NCI-60 one-dose screen at 10 uM, percent growth inhibition versus untreated control cells; details: Homo sapiens, HT-29, growth inhibition, one dose
K-562 = assay: cells; parameters: species or system NCI-60 human tumour cell lines; NCI-60 one-dose screen at 10 uM, percent growth inhibition versus untreated control cells; details: Homo sapiens, K562, growth inhibition, one dose
NCI-H23 = assay: cells; parameters: species or system NCI-60 human tumour cell lines; NCI-60 one-dose screen at 10 uM, percent growth inhibition versus untreated control cells; details: Homo sapiens, NCI-H23, growth inhibition, one dose
NCI-H322M = assay: cells; parameters: species or system NCI-60 human tumour cell lines; NCI-60 one-dose screen at 10 uM, percent growth inhibition versus untreated control cells; details: Homo sapiens, NCI-H322M, growth inhibition, one dose
NCI/ADR-RES = assay: cells; parameters: species or system NCI-60 human tumour cell lines; NCI-60 one-dose screen at 10 uM, percent growth inhibition versus untreated control cells; details: Homo sapiens, NCI/ADR-RES, growth inhibition, one dose
OVCAR-3 = assay: cells; parameters: species or system NCI-60 human tumour cell lines; NCI-60 one-dose screen at 10 uM, percent growth inhibition versus untreated control cells; details: Homo sapiens, OVCAR-3, growth inhibition, one dose
RPMI-8226 = assay: cells; parameters: species or system NCI-60 human tumour cell lines; NCI-60 one-dose screen at 10 uM, percent growth inhibition versus untreated control cells; details: Homo sapiens, RPMI-8226, growth inhibition, one dose
RXF 393 = assay: cells; parameters: species or system NCI-60 human tumour cell lines; NCI-60 one-dose screen at 10 uM, percent growth inhibition versus untreated control cells; details: Homo sapiens, RXF 393, growth inhibition, one dose
SF-295 = assay: cells; parameters: species or system NCI-60 human tumour cell lines; NCI-60 one-dose screen at 10 uM, percent growth inhibition versus untreated control cells; details: Homo sapiens, SF-295, growth inhibition, one dose
SK-OV-3 = assay: cells; parameters: species or system NCI-60 human tumour cell lines; NCI-60 one-dose screen at 10 uM, percent growth inhibition versus untreated control cells; details: Homo sapiens, SK-OV-3, growth inhibition, one dose
TK-10 = assay: cells; parameters: species or system NCI-60 human tumour cell lines; NCI-60 one-dose screen at 10 uM, percent growth inhibition versus untreated control cells; details: Homo sapiens, TK-10, growth inhibition, one dose
HL-60(TB) = assay: cells; parameters: species or system NCI-60 human tumour cell lines; NCI-60 one-dose screen at 10 uM, percent growth inhibition versus untreated control cells; details: Homo sapiens, HL-60, growth inhibition, one dose
MDA-MB-468 = assay: cells; parameters: species or system NCI-60 human tumour cell lines; NCI-60 one-dose screen at 10 uM, percent growth inhibition versus untreated control cells; details: Homo sapiens, MDA-MB-468, growth inhibition, one dose
[1] = read-out: Growth% inhibition / 5b
[2] = read-out: Growth% inhibition / 5h
[3] = read-out: Growth% inhibition / 5e
[4] = read-out: Growth% inhibition / 5a

**Q.** With `O=C(/C=C/C=C/c1ccc2c(c1)OCO2)N/N=C/c1ccc(O)cc1O` [5b, (2E,4E)-5-(Benzo[d][1,3]dioxol-5-yl)-N′-((E)-2,4-dihydroxybenzylidene)penta-2,4-dienehydrazide] as the compound, how does the IC50 (SIRT2) read?
**A.** Its IC50 is 21 ± 3 µM.

**Q.** What about the inhibition at 10 µM (COLO 205; [1]) of the same compound?
**A.** Its inhibition at 10 µM is 86%.

**Q.** What about the inhibition at 10 µM (HT29; [1]) of the same compound?
**A.** The inhibition at 10 µM was 51.9%.

**Q.** What about the inhibition at 10 µM (K-562; [1]) of the same compound?
**A.** Its inhibition at 10 µM is 88.4%.

**Q.** And the inhibition at 10 µM (NCI-H23; [1])?
**A.** The inhibition at 10 µM was 70%.

**Q.** And the inhibition at 10 µM (NCI-H322M; [1])?
**A.** The inhibition at 10 µM was 82.2%.

**Q.** And the inhibition at 10 µM (NCI/ADR-RES; [1])?
**A.** Its inhibition at 10 µM is 94.8%.

**Q.** And the inhibition at 10 µM (OVCAR-3; [1])?
**A.** The inhibition at 10 µM was 90.3%.

**Q.** And the inhibition at 10 µM (RPMI-8226; [1])?
**A.** Its inhibition at 10 µM is 52.3%.

**Q.** What about the inhibition at 10 µM (RXF 393; [1]) of the same compound?
**A.** Its inhibition at 10 µM is 42.1%.

**Q.** What about the inhibition at 10 µM (SF-295; [1]) of the same compound?
**A.** Its inhibition at 10 µM is 86.2%.

**Q.** What about the inhibition at 10 µM (SK-OV-3; [1]) of the same compound?
**A.** Its inhibition at 10 µM is 73%.

**Q.** And the inhibition at 10 µM (TK-10; [1])?
**A.** The inhibition at 10 µM was 69%.

**Q.** For `CN(C)c1ccc(C=NNC(=O)/C=C/C=C/c2ccc3c(c2)OCO3)cc1` (mixture of isomers) [5d, (2E,4E)-5-(Benzo[d][1,3]dioxol-5-yl)-N′-((E/Z)-4-(dimethylamino)-benzylidene)penta-2,4-dienehydrazide], which inhibition at 10 µM (K-562; read-out: Growth% inhibition / 5d) is on record?
**A.** Its inhibition at 10 µM is 56.1%.

**Q.** For `C/C(=N\NC(=O)/C=C/C=C/c1ccc2c(c1)OCO2)c1ccc(Br)cc1` [5h, (2E,4E)-5-(Benzo[d][1,3]dioxol-5-yl)-N′-((E)-1-(4-bromophenyl)ethylidene)penta-2,4-dienehydrazide], which IC50 (SIRT2) is on record?
**A.** Its IC50 is 26 ± 3 µM.

**Q.** What about the inhibition at 10 µM (HL-60(TB); [2]) of the same compound?
**A.** Its inhibition at 10 µM is 15.9%.

**Q.** What about the inhibition at 10 µM (K-562; [2]) of the same compound?
**A.** Its inhibition at 10 µM is 40.1%.

**Q.** What about the inhibition at 10 µM (MDA-MB-468; [2]) of the same compound?
**A.** The inhibition at 10 µM was 29.3%.

**Q.** What about the inhibition at 10 µM (NCI-H322M; [2]) of the same compound?
**A.** Its inhibition at 10 µM is 36.5%.

**Q.** And the inhibition at 10 µM (NCI/ADR-RES; [2])?
**A.** The inhibition at 10 µM was 33.9%.

**Q.** And the inhibition at 10 µM (OVCAR-3; [2])?
**A.** Its inhibition at 10 µM is 24.4%.

**Q.** What about the inhibition at 10 µM (RPMI-8226; [2]) of the same compound?
**A.** The inhibition at 10 µM was 19.4%.

**Q.** What does the source list for `CCN(CC)c1ccc(/C=N/NC(=O)/C=C/C=C/c2ccc3c(c2)OCO3)c(O)c1` [5e, (2E,4E)-5-(Benzo[d][1,3]dioxol-5-yl)-N′-((E)-4-(diethylamino)-2-hydroxybenzylidene)penta-2,4-dienehydrazide]?
**A.** IC50 (SIRT2): 23 ± 2 µM; inhibition at 10 µM (COLO 205; [3]): 60.1%; inhibition at 10 µM (HL-60(TB); [3]): 97.3%; inhibition at 10 µM (HT29; [3]): 32.2%; inhibition at 10 µM (K-562; [3]): 82.4%; inhibition at 10 µM (MDA-MB-468; [3]): 86.6%; inhibition at 10 µM (NCI-H23; [3]): 50.3%; inhibition at 10 µM (NCI-H322M; [3]): 66.8%; inhibition at 10 µM (NCI/ADR-RES; [3]): 82.5%; inhibition at 10 µM (OVCAR-3; [3]): 95.1%; inhibition at 10 µM (RPMI-8226; [3]): 46.4%; inhibition at 10 µM (RXF 393; [3]): 27.4%; inhibition at 10 µM (SF-295; [3]): 58.3%; inhibition at 10 µM (SK-OV-3; [3]): 60.5%; inhibition at 10 µM (TK-10; [3]): 62.2%

**Q.** For `O=C(/C=C/C=C/c1ccc2c(c1)OCO2)NN=Cc1ccc(O)cc1` [5a, (2E,4E)-5-(Benzo[d][1,3]dioxol-5-yl)-N′-((E,Z)-4-hydroxybenzylidene)penta-2,4-dienehydrazide], which inhibition at 10 µM (HL-60(TB); [4]) is on record?
**A.** Its inhibition at 10 µM is 44.1%.

**Q.** And the inhibition at 10 µM (K-562; [4])?
**A.** The inhibition at 10 µM was 58.8%.

**Q.** What about the inhibition at 10 µM (NCI-H322M; [4]) of the same compound?
**A.** Its inhibition at 10 µM is 18.5%.

**Q.** And the inhibition at 10 µM (RPMI-8226; [4])?
**A.** The inhibition at 10 µM was 16.9%.
